From patent US9511073B2, “Aromatic amides and uses thereof” (TAXIS Pharmaceuticals, Inc., priority 2011, dated 2016)
Converted amounts (≈) assume the structure as drawn.

Each compound was assayed on Staphylococcus aureus (Isolate ID ATCC 29213) (assay: Bacterial assay: MIC by broth microdilution or agar dilution (CLSI), S. aureus ATCC 29213). Conditions: S. aureus (ATCC29213).
Assay type: cell-based
Procedure, shortened: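 Activity is binned (A ≤0.25 μg/mL; B >0.25–1.0; C >1.0–16; D >16 μg/mL) from MICs determined per CLSI by broth microdilution or agar dilution, on S. aureus ATCC 29213 plus an FtsZ-G196A mutant strain.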

Row | SMILES | S. aureus MIC (μg/mL) Activity Range
1 | NC(=O)c1c(F)ccc(OC(COC(=O)NCc2ccccn2)c2nc(-c3ccc(C(F)(F)F)cc3)c(Br)o2)c1F (centres unmarked) [Compound 165, 2-(5-bromo-4-(4-(trifluoromethyl)phenyl)oazol-2-yl)-2-(3-carbamoyl-2,4-difluorophenoxy)ethyl (pyridin-2-ylmethyl)carbamate] | B (activity>0.25 μg/mL-1.0 μg/mL)

Same assay, conditions: Staphylococcus aureus, ATCC29213, read-out: S. aureus MIC (μg/mL) Activity Range, S. aureus (ATCC29213)

Row | SMILES | MIC [µg/mL]
2 | COCCNC(=O)OCC(Oc1ccc(F)c(C(N)=O)c1F)c1nc(-c2ccc(C(F)(F)F)cc2)c(Br)o1 (centres unmarked) [Compound 164, 2-(5-bromo-4-(4-(trifluoromethyl)phenyl)oxazol-2-yl)-2-(3-carbamoyl-2,4-difluorophenoxy)ethyl (2-methoxyethyl)carbamate] | 0.25 to 1 (≈ 0.411 to 1.64 µM)
3 | NC(=O)c1c(F)ccc(OC(COC(=O)NCc2cccnc2)c2nc(-c3ccc(C(F)(F)F)cc3)c(Br)o2)c1F (centres unmarked) [Compound 166, 2-(5-bromo-4-(4-(trifluoromethyl)phenyl)oxazol-2-yl)-2-(3-carbamoyl-2,4-difluorophenoxy)ethyl (pyridin-3-ylmethyl)carbamate] | < 0.25
4 | NC(=O)c1c(F)ccc(OC(COC(=O)NCc2ccncc2)c2nc(-c3ccc(C(F)(F)F)cc3)c(Br)o2)c1F (centres unmarked) [Compound 167, 2-(5-bromo-4-(4-(trifluoromethyl)phenyl)oxazol-2-yl)-2-(3-carbamoyl-2,4-difluorophenoxy)ethyl (pyridin-4-ylmethyl)carbamate] | < 0.25
5 | NC(=O)c1c(F)ccc(OC(COCCN2CCOCC2)c2nc(-c3ccc(C(F)(F)F)cc3)c(Br)o2)c1F (centres unmarked) [Compound 168, 3-(1-(5-bromo-4-(4-(trifluoromethyl)phenyl)oxazol-2-yl)-2-(2-morpholinoethoxy)ethoxy)-2,6-difluorobenzamide] | 1 to 16 (≈ 1.61 to 25.8 µM)
6 | CS(=O)(=O)N1CCN(C(=O)OCC(Oc2ccc(F)c(C(N)=O)c2F)c2nc(-c3ccc(C(F)(F)F)cc3)c(Br)o2)C1=O (centres unmarked) [Compound 169, 2-(5-bromo-4-(4-(trifluoromethyl)phenyl)oxazol-2-yl)-2-(3-carbamoyl-2,4-difluorophenoxy)ethyl 3-(methylsulfonyl)-2-oxoimidazolidine-1-carboxylate] | 1 to 16 (≈ 1.43 to 22.9 µM)
7 | NC(=O)c1c(F)ccc(OC(COC(=O)Nc2cccnc2)c2nc(-c3ccc(C(F)(F)F)cc3)c(Br)o2)c1F (centres unmarked) [Compound 170, 2-(5-bromo-4-(4-(trifluoromethyl)phenyl)oxazol-2-yl)-2-(3-carbamoyl-2,4-difluorophenoxy)ethyl pyridin-3-ylcarbamate] | 0.25 to 1 (≈ 0.399 to 1.59 µM)
8 | Cc1noc(CCNC(=O)OCC(Oc2ccc(F)c(C(N)=O)c2F)c2nc(-c3ccc(C(F)(F)F)cc3)c(Br)o2)n1 (centres unmarked) [Compound 171, 2-(5-bromo-4-(4-(trifluoromethyl)phenyl)oxazol-2-yl)-2-(3-carbamoyl-2,4-difluorophenoxy)ethyl (2-(3-methyl-1,2,4-oxadiazol-5-yl)ethyl)carbamate] | 0.25 to 1 (≈ 0.379 to 1.51 µM)
9 | Cc1nnc(CNC(=O)OCC(Oc2ccc(F)c(C(N)=O)c2F)c2nc(-c3ccc(C(F)(F)F)cc3)c(Br)o2)o1 (centres unmarked) [Compound 172, 2-(5-bromo-4-(4-(trifluoromethyl)phenyl)oxazol-2-yl)-2-(3-carbamoyl-2,4-difluorophenoxy)ethyl ((5-methyl-1,3,4-oxadiazol-2-yl)methyl)carbamate] | 0.25 to 1 (≈ 0.387 to 1.55 µM)
10 | NC(=O)c1c(F)ccc(OC(COC(=O)NCc2cccc[n+]2[O-])c2nc(-c3ccc(C(F)(F)F)cc3)c(Br)o2)c1F (centres unmarked) [Compound 173, 2-((((2-(5-bromo-4-(4-(trifluoromethyl)phenyl)oxazol-2-yl)-2-(3-carbamoyl-2,4-difluorophenoxy)ethoxy)carbonyl)amino)methyl)pyridine 1-oxide] | 0.25 to 1 (≈ 0.38 to 1.52 µM)
11 | NC(=O)c1c(F)ccc(OC(COC(=O)NCc2ccc[n+]([O-])c2)c2nc(-c3ccc(C(F)(F)F)cc3)c(Br)o2)c1F (centres unmarked) [Compound 174, 3-((((2-(5-bromo-4-(4-(trifluoromethyl)phenyl)oxazol-2-yl)-2-(3-carbamoyl-2,4-difluorophenoxy)ethoxy)carbonyl)amino)methyl)pyridine 1-oxide] | > 16
12 | NC(=O)c1c(F)ccc(OC(COC(=O)NCc2cc[n+]([O-])cc2)c2nc(-c3ccc(C(F)(F)F)cc3)c(Br)o2)c1F (centres unmarked) [Compound 175, 4-((((2-(5-bromo-4-(4-(trifluoromethyl)phenyl)oxazol-2-yl)-2-(3-carbamoyl-2,4-difluorophenoxy)ethoxy)carbonyl)amino)methyl)pyridine 1-oxide] | 1 to 16 (≈ 1.52 to 24.3 µM)
13 | NC(=O)c1c(F)ccc(OC(COC(=O)Nc2ccncc2)c2nc(-c3ccc(C(F)(F)F)cc3)c(Br)o2)c1F (centres unmarked) [Compound 176, 2-(5-bromo-4-(4-(trifluoromethyl)phenyl)oxazol-2-yl)-2-(3-carbamoyl-2,4-difluorophenoxy)ethyl pyridin-4-ylcarbamate] | 0.25 to 1 (≈ 0.399 to 1.59 µM)
14 | NC(=O)c1c(F)ccc(OC(COC(=O)Nc2nnn[nH]2)c2nc(-c3ccc(C(F)(F)F)cc3)c(Br)o2)c1F (centres unmarked) [Compound 177, 2-(5-bromo-4-(4-(trifluoromethyl)phenyl)oxazol-2-yl)-2-(3-carbamoyl-2,4-difluorophenoxy)ethyl 1H-tetrazol-5-ylcarbamate] | > 16
15 | CN1CCN(C(=O)OCC(Oc2ccc(F)c(C(N)=O)c2F)c2nc(-c3ccc(C(F)(F)F)cc3)c(Br)o2)CC1 (centres unmarked) [Compound 178, 2-(5-bromo-4-(4-(trifluoromethyl)phenyl)oxazol-2-yl)-2-(3-carbamoyl-2,4-difluorophenoxy)ethyl 4-methylpiperazine-1-carboxylate] | 0.25 to 1 (≈ 0.395 to 1.58 µM)
16 | Cc1noc(CNC(=O)OCC(Oc2ccc(F)c(C(N)=O)c2F)c2nc(-c3ccc(C(F)(F)F)cc3)c(Br)o2)n1 (centres unmarked) [Compound 179, 2-(5-bromo-4-(4-(trifluoromethyl)phenyl)oxazol-2-yl)-2-(3-carbamoyl-2,4-difluorophenoxy)ethyl ((3-methyl-1,2,4-oxadiazol-5-yl)methyl)carbamate] | < 0.25
17 | CCOC(=O)C(Oc1ccc(F)c(C(N)=O)c1F)c1nc(C2CCOCC2)co1 (centres unmarked) [Compound 180, ethyl 2-(3-carbamoyl-2,4-difluorophenoxy)-2-(4-(tetrahydro-2H-pyran-4-yl)oxazol-2-yl)acetate] | > 16
18 | NC(=O)c1c(F)ccc(OC(CO)c2nc(C3CCOCC3)co2)c1F (centres unmarked) [Compound 182, 2,6-difluoro-3-(2-hydroxy-1-(4-(tetrahydro-2H-pyran-4-yl)oxazol-2-yl)ethoxy)benzamide] | > 16
19 | CN(Cc1cccnc1)C(=O)OCC(Oc1ccc(F)c(C(N)=O)c1F)c1nc(-c2ccc(C(F)(F)F)cc2)c(Br)o1 (centres unmarked) [Compound 185, 2-(5-bromo-4-(4-(trifluoromethyl)phenyl)oxazol-2-yl)-2-(3-carbamoyl-2,4-difluorophenoxy)ethyl methyl(pyridin-3-ylmethyl)carbamate] | 0.25 to 1 (≈ 0.381 to 1.53 µM)
20 | CN(Cc1ccncc1)C(=O)OCC(Oc1ccc(F)c(C(N)=O)c1F)c1nc(-c2ccc(C(F)(F)F)cc2)c(Br)o1 (centres unmarked) [Compound 186, 2-(5-bromo-4-(4-(trifluoromethyl)phenyl)oxazol-2-yl)-2-(3-carbamoyl-2,4-difluorophenoxy)ethyl methyl(pyridin-4-ylmethyl)carbamate] | 0.25 to 1 (≈ 0.381 to 1.53 µM)
21 | NC(=O)c1c(F)ccc(OC(CO)c2nc(C3CCOCC3)c(Br)o2)c1F (centres unmarked) [Compound 187, 3-(1-(5-bromo-4-(tetrahydro-2H-pyran-4-yl)oxazol-2-yl)-2-hydroxyethoxy)-2,6-difluorobenzamide] | > 16
22 | Cc1noc(C(Oc2ccc(F)c(C(N)=O)c2F)c2nc(-c3ccc(C(F)(F)F)cc3)co2)n1 (centres unmarked) [Compound 188, 2,6-difluoro-3-((3-methyl-1,2,4-oxadiazol-5-yl)(4-(4-(trifluoromethyl)phenyl)oxazol-2-yl)methoxy)benzamide] | > 16
23 | NC(=O)c1c(F)ccc(OC(c2nc(-c3ccc(C(F)(F)F)cc3)c(Br)o2)C(O)CO)c1F (centres unmarked) [Compound 189, 3-(1-(5-bromo-4-(4-(trifluoromethyl)phenyl)oxazol-2-yl)-2,3-dihydroxypropoxy)-2,6-difluorobenzamide] | 1 to 16 (≈ 1.86 to 29.8 µM)
24 | Cc1nccn1CCNC(=O)OCC(Oc1ccc(F)c(C(N)=O)c1F)c1nc(-c2ccc(C(F)(F)F)cc2)c(Br)o1 (centres unmarked) [Compound 190, 2-(5-bromo-4-(4-(trifluoromethyl)phenyl)oxazol-2-yl)-2-(3-carbamoyl-2,4-difluorophenoxy)ethyl (2-(2-methyl-1H-imidazol-1-yl)ethyl)carbamate] | 1 to 16 (≈ 1.52 to 24.3 µM)
25 | CN(Cc1ccccn1)C(=O)OCC(Oc1ccc(F)c(C(N)=O)c1F)c1nc(-c2ccc(C(F)(F)F)cc2)c(Br)o1 (centres unmarked) [Compound 191, 2-(5-bromo-4-(4-(trifluoromethyl)phenyl)oxazol-2-yl)-2-(3-carbamoyl-2,4-difluorophenoxy)ethyl methyl(pyridin-2-ylmethyl)carbamate] | 1 to 16 (≈ 1.53 to 24.4 µM)
26 | CN(Cc1cnccn1)C(=O)OCC(Oc1ccc(F)c(C(N)=O)c1F)c1nc(-c2ccc(C(F)(F)F)cc2)c(Br)o1 (centres unmarked) [Compound 192, 2-(5-bromo-4-(4-(trifluoromethyl)phenyl)oxazol-2-yl)-2-(3-carbamoyl-2,4-difluorophenoxy)ethyl methyl(pyrazin-2-ylmethyl)carbamate] | 0.25 to 1 (≈ 0.381 to 1.52 µM)
27 | Cn1ccc(CNC(=O)OCC(Oc2ccc(F)c(C(N)=O)c2F)c2nc(-c3ccc(C(F)(F)F)cc3)c(Br)o2)n1 (centres unmarked) [Compound 193, 2-(5-bromo-4-(4-(trifluoromethyl)phenyl)oxazol-2-yl)-2-(3-carbamoyl-2,4-difluorophenoxy)ethyl ((1-methyl-1H-pyrazol-3-yl)methyl)carbamate] | < 0.25
28 | Cn1nccc1CNC(=O)OCC(Oc1ccc(F)c(C(N)=O)c1F)c1nc(-c2ccc(C(F)(F)F)cc2)c(Br)o1 (centres unmarked) [Compound 194, 2-(5-bromo-4-(4-(trifluoromethyl)phenyl)oxazol-2-yl)-2-(3-carbamoyl-2,4-difluorophenoxy)ethyl ((1-methyl-1H-pyrazol-5-yl)methyl)carbamate] | < 0.25
29 | Cn1cncc1CNC(=O)OCC(Oc1ccc(F)c(C(N)=O)c1F)c1nc(-c2ccc(C(F)(F)F)cc2)c(Br)o1 (centres unmarked) [Compound 195, 2-(5-bromo-4-(4-(trifluoromethyl)phenyl)oxazol-2-yl)-2-(3-carbamoyl-2,4-difluorophenoxy)ethyl ((1-methyl-1H-imidazol-5-yl)methyl)carbamate] | 1 to 16 (≈ 1.55 to 24.8 µM)
